pIC50: −log10 of the molar value.
Assays:
Assay type in all cases: biochemical
[1] = biological target: human JAK2 (Homo sapiens (Human), UniProt O60674); test: In vitro JAK kinase assay (HTRF, phosphorylation of a biotinylated peptide), JAK2; set-up: key to JAK2 IC50 (nM): +indicates an IC50 of ≦100 nM; ++indicates an IC50 of ≦1000 nM; +++indicates an IC50 of ≦2000 nM; ++++indicates an IC50 of >2000 nM; +++++indicates that the IC50 was greater than the highest concentration tested; conditions: 1 mM ATP
Description: (§1) Compounds herein were tested for inhibitory activity of JAK targets according to the following in vitro assay described in Park et al., Analytical Biochemistry 1999, 269, 94-104. The catalytic domains of human JAK1 (a.a. 837-1142), JAK2 (a.a. 828-1132) and JAK3 (a.a. 781-1124) were expressed using baculovirus in insect cells and purified. The catalytic activity of JAK1, JAK2 or JAK3 was assayed by measuring the phosphorylation of a biotinylated peptide. The phosphorylated peptide was detected by homogenous time resolved fluorescence (HTRF). IC50s of compounds were measured for each kinase in the 40 μL reactions that contain the enzyme, ATP and 500 nM peptide in 50 mM Tris (pH 7.8) buffer with 100 mM NaCl, 5 mM DTT, and 0.1 mg/mL (0.01%) BSA. For the 1 mM IC50 measurements, ATP concentration in the reactions was 1 mM. Reactions were carried out at room temperature for 1 hour and then stopped with 20 μL 45 mM EDTA, 300 nM SA-APC, 6 nM Eu-Py20 in assay buffer (Perkin Elmer, Boston, Mass.). Binding to the Europium labeled antibody took place for 40 minutes and HTRF signal was measured on a PHERA star plate reader (BMG, Cary, N.C.). The Example compounds were each tested in the Example A assay (see Table 1 for data for the compounds of the examples as tested by the assay of Example A at 1 mM ATP).

[2] = biological target: human JAK1 (Homo sapiens, UniProt P23458); test: In vitro JAK kinase assay (HTRF, phosphorylation of a biotinylated peptide), JAK1; conditions: 1 mM ATP
Description: as §1

[3] = system: human JAK1; test: as above; conditions: ratio of IC50s, 1 mM ATP
Description: as §1

Chain of human JAK2 (O60674 828-1132): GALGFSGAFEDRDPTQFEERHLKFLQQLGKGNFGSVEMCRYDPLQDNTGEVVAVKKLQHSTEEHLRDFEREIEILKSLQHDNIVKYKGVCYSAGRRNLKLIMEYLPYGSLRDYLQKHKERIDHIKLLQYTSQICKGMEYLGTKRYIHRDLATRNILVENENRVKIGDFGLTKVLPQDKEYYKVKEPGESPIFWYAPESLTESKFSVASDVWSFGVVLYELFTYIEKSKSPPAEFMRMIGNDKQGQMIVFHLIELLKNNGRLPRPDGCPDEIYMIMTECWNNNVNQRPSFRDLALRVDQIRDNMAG

| Molecule | pIC50 [1] | pIC50 [2] | JAK2/JAK1 [3] | JAK2 IC50 (nM) [1] |
| --- | --- | --- | --- | --- |
| Cc1nc2cnc3ccsc3c2n1[C@H]1CC[C@H](CC#N)CC1 [Example 48, [trans-4-(2-Methyl-1H-imidazo[4,5-d]thieno[3,2-b]pyridin-1-yl)cyclohexyl]acetonitrile] | ≥ 7.00 | ≥ 7.00 | >7 | – |
| CC(C)c1nc2cnc3ccsc3c2n1[C@H]1CC[C@H](CC#N)CC1 [Example 27, [trans-4-(2-Isopropyl-1H-imidazo[4,5-d]thieno[3,2-b]pyridin-1-yl)cyclohexyl]acetonitrile] | ≥ 6.00 | ≥ 7.00 | >10 | – |
| C[C@@H](O)c1nc2cnc3ccsc3c2n1[C@H]1CC[C@H](CNS(C)(=O)=O)OC1 [Example 75, N-[((2R,5S)-5-{2-[(1R)-1-Hydroxyethyl]-1H-imidazo[4,5-d]thieno[3,2-b]pyridin-1-yl}tetrahydro-2H-pyran-2-yl)methyl]methanesulfonamide] | ≥ 5.70 | ≥ 7.00 | >10 | – |
| C[C@@H](O)c1nc2cnc3ccsc3c2n1[C@H]1CC[C@H](O)CC1 [Example 3, trans-4-{2-[(1R)-1-Hydroxyethyl]-1H-imidazo[4,5-d]thieno[3,2-b]pyridin-1-yl}cyclohexanol] | – | ≥ 6.00 | >10 | +++++ |
| N#CCc1nc2cnc3ccsc3c2n1[C@H]1CC[C@@H](CC#N)OC1 [Example 74, {(2S,5S)-5-[2-(Cyanomethyl)-1H-imidazo[4,5-d]thieno[3,2-b]pyridin-1-yl]tetrahydro-2H-pyran-2-yl}acetonitrile] | – | ≥ 6.00 | >10 | +++++ |
| ((1R,2R,4S)-2-Hydroxy-4-{2-[(1R)-1-hydroxyethyl]-1H-imidazo[4,5-d]thieno[3,2-b]pyridin-1-yl}cyclohexyl)acetonitrile and ((1S,2S,4R)-2-hydroxy-4-{2-[(1R)-1-hydroxyethyl]-1H-imidazo[4,5-d]thieno[3,2-b]pyridin-1-yl}cyclohexyl)acetonitrile [36 (first peak)] | < 5.70 | ≥ 7.00 | >10 | – |
| C[C@@H](O)c1nc2cnc3ccsc3c2n1[C@H]1CCN(CCCC(F)(F)F)C1 [Example 64, (1R)-1-{1-[(3S)-1-(4,4,4-Trifluorobutyl)pyrrolidin-3-yl]-1H-imidazo[4,5-d]thieno[3,2-b]pyridin-2-yl}ethanol] | – | ≥ 7.00 | >10 | +++++ |
| COC(=O)NC[C@H]1CC[C@H](n2c(CC#N)nc3cnc4ccsc4c32)CC1 [Example 86, Methyl ({trans-4-[2-(cyanomethyl)-1H-imidazo[4,5-d]thieno[3,2-b]pyridin-1-yl]cyclohexyl}methyl)carbamate] | ≥ 6.00 | ≥ 7.00 | >10 | – |
| C[C@@H](O)c1nc2cnc3ccsc3c2n1[C@H]1CC[C@@H](CC#N)C1.O=C(O)C(F)(F)F [Example 49, ((4R,3S)-3-{2-[(1R)-1-Hydroxyethyl]-1H-imidazo[4,5-d]thieno[3,2-b]pyridin-1-yl}cyclopentyl)acetonitrile trifluoroacetate] | – | ≥ 6.00 | >10 | +++++ |
| CCCOC(=O)NC[C@H]1CC[C@H](n2c([C@@H](C)O)nc3cnc4ccsc4c32)CC1 [Example 83, Propyl [(trans-4-{2-[(1R)-1-hydroxyethyl]-1H-imidazo[4,5-d]thieno[3,2-b]pyridin-1-yl}cyclohexyl)methyl]carbamate] | ≥ 6.00 | ≥ 7.00 | >10 | – |
| ((1R,2S,4S)-2-Hydroxy-4-{2-[(1R)-1-hydroxyethyl]-1H-imidazo[4,5-d]thieno[3,2-b]pyridin-1-yl}cyclohexyl)acetonitrile trifluoacetate and ((1S,2R,4R)-2-hydroxy-4-{2-[(1R)-1-hydroxyethyl]-1H-imidazo[4,5-d]thieno[3,2-b]pyridin-1-yl}cyclohexyl)acetonitrile trifluoacetate [37 (first peak)] | – | ≥ 6.00 | >10 | +++++ |
| CCOC(=O)NC[C@H]1CC[C@H](n2c([C@@H](C)O)nc3cnc4ccsc4c32)CC1 [Example 82, Ethyl [(trans-4-{2-[(1R)-1-hydroxyethyl]-1H-imidazo[4,5-d]thieno[3,2-b]pyridin-1-yl}cyclohexyl)methyl]carbamate] | ≥ 6.00 | ≥ 7.00 | >10 | – |
| C[C@@H](O)c1nc2cnc3ccsc3c2n1[C@H]1CC[C@@H](CC#N)OC1 [Example 21, ((2S,5S)-5-{2-[(1R)-1-Hydroxyethyl]-1H-imidazo[4,5-d]thieno[3,2-b]pyridin-1-yl}tetrahydro-2H-pyran-2-yl)acetonitrile] | – | ≥ 6.00 | >10 | +++++ |
| CCOC(=O)N1CCC[C@H](n2c([C@@H](C)O)nc3cnc4ccsc4c32)C1 [Example 50, Ethyl (3S)-3-{2-[(1R)-1-hydroxyethyl]-1H-imidazo[4,5-d]thieno[3,2-b]pyridin-1-yl}piperidine-1-carboxylate] | – | ≥ 6.00 | >10 | +++++ |
| CC(CC(=O)N1CCC[C@H](n2c([C@@H](C)O)nc3cnc4ccsc4c32)C1)c1ccccc1 (stereo partly drawn) [Example 55, (1R)-1-{1-[(3S)-1-(3-Phenylbutanoyl)piperidin-3-yl]-1H-imidazo[4,5-d]thieno[3,2-b]pyridin-2-yl}ethanol] | – | ≥ 6.00 | >10 | +++++ |
| CNC(C)c1nc2cnc3ccsc3c2n1[C@H]1CC[C@H](CC#N)OC1 (stereo partly drawn) [Example 70, ((2R,5S)-5-{2-[1-(Methylamino)ethyl]-1H-imidazo[4,5-d]thieno[3,2-b]pyridin-1-yl}tetrahydro-2H-pyran-2-yl)acetonitrile] | < 5.70 | ≥ 6.00 | >10 | – |
| Cc1nc2cnc3ccsc3n2c1-c1ccc(CC#N)cc1 [Example 33, [4-(7-Methylimidazo[1,2-a]thieno[3,2-e]pyrazin-8-yl)phenyl]acetonitrile] | ≥ 6.00 | ≥ 7.00 | >7 | – |
| C[C@@H](O)c1nc2cnc3ccsc3c2n1C1CCN(CC#N)CC1.O=C(O)C(F)(F)F [Example 61, (4-{2-[(1R)-1-Hydroxyethyl]-1H-imidazo[4,5-d]thieno[3,2-b]pyridin-1-yl}piperidin-1-yl)acetonitrile trifluoroacetate] | – | ≥ 6.00 | >10 | +++++ |
| C[C@@H](O)c1nc2cnc3ccsc3c2n1[C@H]1CCN(C(=O)CC#N)C1 [Example 63, 3-((3S)-3-{2-[(1R)-1-Hydroxyethyl]-1H-imidazo[4,5-d]thieno[3,2-b]pyridin-1-yl}pyrrolidin-1-yl)-3-oxopropanenitrile] | – | ≥ 5.70 | >6 | +++++ |
| C[C@@H](O)c1nc2cnc3ccsc3c2n1[C@H]1CCC(CO)OC1 (stereo partly drawn) [Example 19, (1R)-1-{1-[(3S)-6-(Hydroxymethyl)tetrahydro-2H-pyran-3-yl]-1H-imidazo[4,5-d]thieno[3,2-b]pyridin-2-yl}ethanol] | – | ≥ 6.00 | >10 | +++++ |
| C[C@@H](O)c1nc2cnc3ccsc3c2n1[C@H]1CC[C@H](CCC#N)CC1 [Example 8, 3-(trans-4-{2-[(1R)-1-Hydroxyethyl]-1H-imidazo[4,5-d]thieno[3,2-b]pyridin-1-yl}cyclohexyl)propane nitrile] | ≥ 6.00 | ≥ 7.00 | >10 | – |
| [(1R,2S,4S)-4-(2-Methyl-1H-imidazo[4,5-d]thieno[3,2-b]pyridin-1-yl)-2-hydroxycyclohexyl]acetonitrile and [(1S,2R,4R)-4-(2-methyl-1H-imidazo[4,5-d]thieno[3,2-b]pyridin-1-yl)-2-hydroxycyclohexyl]acetonitrile [41 (first peak)] | ≥ 6.00 | ≥ 7.00 | >10 | – |
| CC(=O)NC[C@H]1CC[C@H](n2c([C@@H](C)O)nc3cnc4ccsc4c32)CC1 [Example 79, N-[(trans-4-{2-[(1R)-1-Hydroxyethyl]-1H-imidazo[4,5-b]thieno[3,2-b]pyridin-1-yl}cyclohexyl)methyl]acetamide] | ≥ 5.70 | ≥ 7.00 | >10 | – |

From patent US9777017B2, “Tricyclic fused thiophene derivatives as JAK inhibitors” (Incyte Corporation, priority 2012, dated 2017)
